Results published in patent US9120835B2, “Phosphoric acid ester derivatives” (Daiichi Sankyo Company Limited, priority 2011, dated 2015).

How the values were obtained:
[1] = system: lymphocytes in the peripheral blood; assay: Variation in number of lymphocytes in peripheral blood in rat; assay type: in vivo; settings: male LEW/Crj rats, single oral gavage, suspension in 0.5% MC solution
Procedure: (§1) Male LEW/Crj rats at 3 or 6 weeks old were purchased from Charles River Laboratory Japan Inc. The rats were acclimatized for a week before the start of experiments. The rats were used for the experiments at 3 or 5 rats per one group. A necessary amount of a compound was weighed and suspended in a 0.5% MC solution by using a mortar and a muddler, or a homogenizer. A liquid for administration was prepared so as to be 5 mL per 1 kg body weight. The prepared solution was administered once by oral gavage. […] The blood was immediately put into a vacuum-sealed blood collection tube coated with an anticoagulant (EDTA-2K) (Nipro Corporation) and mixed. The sample was handled under room temperature condition until measurement. The number of the lymphocytes was measured by using an automatic hemacytometer (ADVIA120, Siemens Healthcare Diagnostics K. K.). At the time of blood collection, the thymus gland was also excised.

S1P lyase = biological target: T1, S1P lyase (Rattus norvegicus, UniProt Q8CHN6); assay: S1P lyase inhibitory ability in rat (thymus gland extract after oral administration); assay type: in vivo; settings: thymus gland extract of orally dosed rats, [3H]dhS1P substrate, 37° C. for 1 hour
T1 construct: The excised thymus gland was crushed; from tissue; host or cells: thymus gland of male LEW/Crj rats (extract supernatant)
T1 sequence (Q8CHN6 1-568): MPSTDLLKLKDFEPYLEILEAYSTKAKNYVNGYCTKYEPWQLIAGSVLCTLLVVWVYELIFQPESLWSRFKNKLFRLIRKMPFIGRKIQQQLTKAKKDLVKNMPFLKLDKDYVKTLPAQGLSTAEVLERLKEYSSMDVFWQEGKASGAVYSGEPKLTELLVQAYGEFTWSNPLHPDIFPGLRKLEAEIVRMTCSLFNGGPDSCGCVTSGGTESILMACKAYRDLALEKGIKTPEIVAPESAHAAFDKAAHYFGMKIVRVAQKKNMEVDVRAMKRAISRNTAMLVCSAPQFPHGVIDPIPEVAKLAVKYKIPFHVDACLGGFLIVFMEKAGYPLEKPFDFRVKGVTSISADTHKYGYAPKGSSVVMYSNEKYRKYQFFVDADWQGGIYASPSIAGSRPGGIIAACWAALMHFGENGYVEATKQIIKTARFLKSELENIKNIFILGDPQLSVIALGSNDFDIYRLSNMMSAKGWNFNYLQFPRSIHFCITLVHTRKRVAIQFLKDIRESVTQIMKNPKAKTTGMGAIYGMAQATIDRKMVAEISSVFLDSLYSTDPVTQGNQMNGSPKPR
Procedure: as §1, with “At the time of blood collection, the thymus gland was also excised.” left out
The excised thymus gland was crushed by either a method including using zirconia beads in the presence of a homogenize buffer (50 mM HEPES-NaOH (pH=7.4), 0.15 M NaCl, 10% Glycerol, 1 mM EDTA, 1 mM DTT and complete protease inhibitor cocktail (Roche, #4693132)) or a method including chopping up the thymus gland and thereafter using a Potter-Elvehjem homogenizer. […] The protein amount in the supernatant was quantified by the Bradford method, and the supernatant was flash-freezed with liquid nitrogen and then stored at −80° C. […]

Compound	number of lymphocytes in the peripheral blood [1]	S1P lyase activity in the thymus gland (S1P lyase)
CC(=O)c1nc(COP(=O)(O)O)c(C)[nH]1 [Example 2, Phosphoric acid mono-(2-acetyl-5-methyl-1H-imidazol-4-ylmethyl) ester and phosphoric acid mono-(2-acetyl-5-methyl-3H-imidazol-4-ylmethyl) ester]	reduced the number of lymphocytes in the peripheral blood	decreased SIP lyase activity in the thymus gland
CC(=O)c1nc(COP(=O)(O)O)c[nH]1 [Example 1, Phosphoric acid mono-(2-acetyl-1H-imidazol-4-ylmethyl) ester and phosphoric acid mono-(2-acetyl-3H-imidazol-4-ylmethyl) ester]	reduced the number of lymphocytes in the peripheral blood	decreased SIP lyase activity in the thymus gland
O=P(O)(O)OCc1c[nH]c(-c2ccon2)n1 [Example 4, Phosphoric acid mono-(2-isoxazol-3-yl-1H-imidazol-4-ylmethyl) ester and phosphoric acid mono-(2-isoxazol-3-yl-3H-imidazol-4-ylmethyl) ester]	reduced the number of lymphocytes in the peripheral blood	
